Structures can show the parent of a compound that is named as a salt.
Target: T1, ACC1 from rat liver (Rattus norvegicus, UniProt P11497)
T1 construct: The livers (for ACC1 preparation) or skeletal muscle tissue (for ACC2 preparation) are removed; from tissue; host or cells: liver of male CD rats (fasted, then fed a high sucrose diet)
Assay: Direct inhibition of ACC1 activity (14C-bicarbonate incorporation)
Assay type: biochemical
How it was run: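 ACC1 partially purified from livers of fasted/sucrose-refed male rats by PEG and ammonium sulfate fractionation, then preincubated 30 min at 37°C with 10 mM citrate and 1.0 mM MgCl2. Reaction ran 7 min at 37°C, stopped with HCl; acid-stable radioactivity counted by scintillation; HCl-first tubes served as blanks.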

IC50 (Table of Examples M1-M36) [nM]	IC50 (ACC1 from rat liver) [nM]	Compound	further results
		Cc1cc2c(cc1Cl)C(=O)CC1(CCN(C(=O)c3cccc(-c4cc(C(F)(F)F)[nH]n4)c3)CC1)O2 [Ex. P2, 6-chloro-7-methyl-1′-{3-[5-(trifluoromethyl)-1H-pyrazol-3-yl]benzoyl}spiro[chromene-2,4′-piperidin]-4(3H)-one trifluoroacetic acid salt]	IC50 (Table of Examples P1-P15): 426 nM
129		COc1ccc2c(c1)C(=O)CC1(CCN(C(=O)c3cccc(-c4cc[nH]n4)c3)CC1)O2 [Ex. M6, 6-methoxy-1′-[3-(1H-pyrazol-3-yl)benzoyl]spiro[chromene-2,4′-piperidin]-4(3H)-one]	
	2660	O=C1CC2(CCN(C(=O)c3cccc4cn[nH]c34)CC2)Oc2c(Cl)cc(Cl)cc21 [Ex. H22, 6,8-dichloro-1′-(1H-indazol-7-ylcarbonyl)spiro[chromene-2,4′-piperidin]-4(3H)-one]	
		Cc1cc2c(cc1C)C(=O)CC1(CCN(C(=O)c3cc(-c4ccn(C)n4)ccc3Cl)CC1)O2 [Ex. P3, 1′-[2-chloro-5-(1-methyl-1H-pyrazol-3-yl)benzoyl]-6,7-dimethylspiro[chromene-2,4′-piperidin]-4(3H)-one]	IC50 (Table of Examples P1-P15): < 3000 nM
	107	Cc1cc2c(cc1Cl)C(=O)CC1(CCN(C(=O)c3ccc4c(C)n[nH]c4c3)CC1)O2 [Ex. F3, 6-chloro-7-methyl-1′-[(3-methyl-1H-indazol-6-yl)carbonyl]spiro[chromene-2,4′-piperidin]-4(3H)-one]	
	112	COc1cccc2c1C(=O)CC1(CCN(C(=O)c3cc(C)c4[nH]ncc4c3)CC1)O2 [Ex. A25, 5-methoxy-1′-[(7-methyl-1H-indazol-5-yl)carbonyl]spiro[chromene-2,4′-piperidin]-4(3H)-one]	
		Cc1cc2c(cc1C)C(=O)CC1(CCN(C(=O)c3cccc(-c4ncc[nH]4)c3)CC1)O2 [Ex. P12, 1′-[3-(1H-imidazol-2-yl)benzoyl]-6,7-dimethylspiro[chromene-2,4′-piperidin]-4(3H)-one trifluoroacetic acid salt]	IC50 (Table of Examples P1-P15): 73.9 nM
223		COc1ccc2c(c1F)C(=O)CC1(CCN(C(=O)c3cccc(-c4cc[nH]n4)c3)CC1)O2 [Ex. M14, 5-fluoro-6-methoxy-1′-[3-(1H-pyrazol-3-yl)benzoyl]spiro[chromene-2,4′-piperidin]-4(3H)-one]	
		CCOc1ccc(-c2cc[nH]n2)cc1C(=O)N1CCC2(CC1)CC(=O)c1cc(Cl)c(C)cc1O2 [Ex. P9, 6-chloro-1′-[2-ethoxy-5-(1H-pyrazol-3-yl)benzoyl]-7-methylspiro[chromene-2,4′-piperidin]-4(3H)-one]	IC50 (Table of Examples P1-P15): 1060 nM
817		O=C1CC2(CCN(C(=O)c3cccc(-c4cc[nH]n4)c3)CC2)Oc2cc(F)ccc21 [Ex. M34, 7-Fluoro-1′-[3-(1H-pyrazol-3-yl)benzoyl]spiro[chromene-2,4′-piperidin]-4(3H)-one]	
	321	Cc1cc2c(cc1Cl)C(=O)CC1(CCN(C(=O)c3cccc4cn[nH]c34)CC1)O2 [Ex. H5, 6-chloro-1′-(1H-indazol-7-ylcarbonyl)-7-methylspiro[chromene-2,4′-piperidin]-4(3H)-one]	
		CCOc1ccc(-c2cc[nH]n2)cc1C(=O)N1CCC2(CC1)CC(=O)c1cc(C)c(C)cc1O2 [Ex. P7, 1′-[2-ethoxy-5-(1H-pyrazol-3-yl)benzoyl]-6,7-dimethylspiro[chromene-2,4′-piperidin]-4(3H)-one trifluoroacetic acid salt]	IC50 (Table of Examples P1-P15): < 3000 nM
	70.5	Cc1cc(C(=O)N2CCC3(CC2)CC(=O)c2ccc(Cl)cc2O3)cc2cn[nH]c12 [Ex. A17, 7-chloro-1′-[(7-methyl-1H-indazol-5-yl)carbonyl]spiro[chromene-2,4′-piperidin]-4(3H)-one]	
233		O=C1CC2(CCN(C(=O)c3cccc(-c4cc[nH]n4)c3)CC2)Oc2cc(Cl)ccc21 [Ex. M15, 7-chloro-1′-[3-(1H-pyrazol-3-yl)benzoyl]spiro[chromene-2,4′-piperidin]-4(3H)-one]	
	562	COc1ccc2c(c1)C(=O)CC1(CCN(C(=O)c3cccc4cn[nH]c34)CC1)O2 [Ex. H7]	
	369	Cc1cc2c(cc1Cl)C(=O)CC1(CCN(C(=O)c3ccc4ocnc4c3)CC1)O2 [Ex. L46, 1′-(1,3-benzoxazol-5-ylcarbonyl)-6-chloro-7-methylspiro[chromene-2,4′-piperidin]-4(3H)-one]	
374		COc1c(Cl)ccc2c1C(=O)CC1(CCN(C(=O)c3cccc(-c4cc[nH]n4)c3)CC1)O2 [Ex. M18, 6-chloro-5-methoxy-1′-[3-(1H-pyrazol-3-yl)benzoyl]spiro[chromene-2,4′-piperidin]-4(3H)-one]	
	< 3000	Cc1nc2c(C(=O)N3CCC4(CC3)CC(=O)c3cc(C)c(C)cc3O4)cccc2[nH]1 [Ex. L19, 6,7-dimethyl-1′-[(2-methyl-1H-benzimidazol-4-yl)carbonyl]spiro[chromene-2,4′-piperidin]-4(3H)-one trifluoroacetic acid salt]	

IC50 (Table of Examples M1-M36) [nM]	IC50 (ACC1 from rat liver) [nM]	Compound	further results
220		O=C1CC2(CCN(C(=O)c3cccc(-c4cc[nH]n4)c3)CC2)Oc2ccc(OC(F)(F)F)cc21 [Ex. M13, 1′-[3-(1H-pyrazol-3-yl)benzoyl]-6-(trifluoromethoxy)spiro[chromene-2,4′-piperidin]-4(3H)-one]	
	40	COC(=O)c1ccc2c(c1)C(=O)CC1(CCN(C(=O)c3cc(C)c4[nH]ncc4c3)CC1)O2 [Ex. A11, methyl 1-[(7-methyl-1H-indazol-5-yl)carbonyl]-4-oxo-3,4-dihydrospiro[chromene-2,4-piperidine]-6-carboxylate]	
	9.8	Cc1cc2c(cc1C)C(=O)CC1(CCN(C(=O)c3cc(C)c4[nH]nc(C)c4c3)CC1)O2 [Ex. E3, 1′-[(3,7-dimethyl-1H-indazol-5-yl)carbonyl]-6,7-dimethylspiro[chromene-2,4′-piperidin]-4(3H)-one]	
	< 3000	Cc1cc2c(cc1C)C(=O)CC1(CCN(C(=O)c3ccc4c(c3)nnn4C)CC1)O2 [Ex. L41, 6,7-dimethyl-1′-[(1-methyl-1H-1,2,3-benzotriazol-5-yl)carbonyl]spiro[chromene-2,4′-piperidin]-4(3H)-one]	
205		Cc1ccc2c(c1)OC1(CCN(C(=O)c3cccc(-c4cc[nH]n4)c3)CC1)CC2=O [Ex. M12, 7-methyl-1′-[3-(1H-pyrazol-3-yl)benzoyl]spiro[chromene-2,4′-piperidin]-4(3H)-one]	
	53.6	Cc1ccc2c(c1)C(=O)CC1(CCN(C(=O)c3cc(C)c4[nH]ncc4c3)CC1)O2 [Ex. A15, 6-methyl-1′-[(7-methyl-1H-indazol-5-yl)carbonyl]spiro[chromene-2,4′-piperidin]-4(3H)-one]	
481		COc1ccc2c(c1)OC1(CCN(C(=O)c3cccc(-c4cc[nH]n4)c3)CC1)CC2=O [Ex. M25, 7-methoxy-1′-[3-(1H-pyrazol-3-yl)benzoyl]spiro[chromene-2,4′-piperidin]-4(3H)-one]	
	216	COc1ccc2c(c1)C(=O)CC1(CCN(C(=O)c3ccc4c(cnn4C)c3)CC1)O2 [Ex. D2, 6-methoxy-1′-[(1-methyl-1H-indazol-5-yl)carbonyl]spiro[chromene-2,4′-piperidin]-4(3H)-one]	
	32.6	Cc1cc2c(cc1Br)C(=O)CC1(CCN(C(=O)c3cc(C)c4[nH]ncc4c3)CC1)O2 [Ex. A8, 6-bromo-7-methyl-1′-[(7-methyl-1H-indazol-5-yl)carbonyl]spiro[chromene-2,4′-piperidin]-4(3H)-one]	
110		CNC(=O)c1ccc2c(c1)C(=O)CC1(CCN(C(=O)c3cccc(-c4cc[nH]n4)c3)CC1)O2 [Ex. M4, N-methyl-4-oxo-1′-[3-(1H-pyrazol-3-yl)benzoyl]-3,4-dihydrospiro[chromene-2,4′-piperidine]-6-carboxamide]	
140		Cc1cc2c(cc1Cl)OC1(CCN(C(=O)c3cccc(-c4cc[nH]n4)c3)CC1)CC2=O [Ex. M7, 7-chloro-6-methyl-1′-[3-(1H-pyrazol-3-yl)benzoyl]spiro[chromene-2,4′-piperidin]-4(3H)-one]	
118		NC(=O)c1ccc2c(c1)C(=O)CC1(CCN(C(=O)c3cccc(-c4cc[nH]n4)c3)CC1)O2 [Ex. M5, 4-oxo-1′-[3-(1H-pyrazol-3-yl)benzoyl]-3,4-dihydrospiro[chromene-2,4′-piperidine]-6-carboxamide]	
	2010	Cc1cc2c(cc1Cl)C(=O)CC1(CCN(C(=O)c3cccc4[nH]cnc34)CC1)O2 [Ex. L18, 1′-(1H-benzimidazol-4-ylcarbonyl)-6-chloro-7-methylspiro[chromene-2,4′-piperidin]-4(3H)-one]	
201		Cc1cc2c(cc1Br)C(=O)CC1(CCN(C(=O)c3cccc(-c4cc[nH]n4)c3)CC1)O2 [Ex. M10, 6-bromo-7-methyl-1′-[3-(1H-pyrazol-3-yl)benzoyl]spiro[chromene-2,4′-piperidin]-4(3H)-one]	
	234	Cc1cc(C(=O)N2CCC3(CC2)CC(=O)c2cc(C#N)ccc2O3)cc2cn[nH]c12 [Ex. A31, 1′-[(7-methyl-1H-indazol-5-yl)carbonyl]-4-oxo-3,4-dihydrospiro[chromene-2,4-piperidine]+carbonitrile]	
	1170	Cc1cc2c(cc1C)C(=O)CC1(CCN(C(=O)c3ccc4c(c3)ncn4C)CC1)O2 [Ex. L23, 6,7-dimethyl-1′-[(1-methyl-1H-benzimidazol-5-yl)carbonyl]spiro[chromene-2,4′-piperidin]-4(3H)-one trifluoroacetic acid salt]	
418		O=C1CC2(CCN(C(=O)c3cccc(-c4cc[nH]n4)c3)CC2)Oc2ccc(C(F)(F)F)cc21 [Ex. M19, 1′-[3-(1H-pyrazol-3-yl)benzoyl]-6-(trifluoromethyl)spiro[chromene-2,4′-piperidin]-4(3H)-one]	
		COc1cc(Cl)c2c(c1)OC1(CCN(C(=O)c3cccc(-c4ccn[nH]4)c3)CC1)CC2=O [Ex. O2, 5-chloro-7-methoxy-1′-[3-(1H-pyrazol-5-yl)benzoyl]spiro[chromene-2,4′-piperidin]-4(3H)-one]	IC50 (Table of Examples O1-O4): 55 nM

Source: patent US20090270435A1 (priority 2006, published 2009)
